We go through 2 molecules from ChEMBL document CHEMBL1147623, “Interference of the galactose-dependent binding of lectins by novel pentapeptide ligands” (Bioorg Med Chem Lett, 2004).

Assay [1] in a line: Inhibition of CG-14 binding was determined in solid phase assay. Also on record: species or system Gallus gallus.
Assay [2] can be described thus: Inhibition of galectin-1 binding was determined in solid phase assay.

Broadly, the IC50 is the point on the concentration scale where inhibition reaches its midpoint. With `CC(C)C[C@H](NC(=O)[C@H](Cc1ccc(O)cc1)NC(=O)[C@@H](CC(=O)O)NC(=O)COCC(=O)NCCCOCCOCCOCCCN)C(=O)N[C@@H](Cc1ccc(O)cc1)C(=O)N[C@@H](Cc1ccccc1)C(N)=O`, the IC50 in assay [1] was found to be 6.9 mM; in assay [2], 8 mM.

For `CC(O)[C@@H](NC(=O)COCC(=O)NCCCOCCOCCOCCCN)C(=O)N[C@@H](Cc1ccc(O)cc1)C(=O)N[C@H](CC(=O)O)C(=O)N[C@@H](Cc1ccc(O)cc1)C(=O)N[C@@H](Cc1ccccc1)C(N)=O` (some centres undefined), the concentration for half-maximal inhibition (IC50) in assay [1] was found to be 7.5 mM; in assay [2], 5.2 mM.
